Assay results reported in PubChem BioAssay AID248 (DTP/NCI, 2004).
Several values for one entry are separate records, joined by “and”; a condition that tells them apart may be missing. Equal entries are not always repeated. Inconclusive results and toxic doses are left out. No stated cut-off is given here; in the data, active means T/C of 150% or more; inactive means T/C below 125%.

System: L1210 leukemia ip in BDF1 mice, survival T/C
Assay: NCI In Vivo Anticancer Drug Screen. Data for tumor model L1210 Leukemia (intraperitoneal) in B6D2F1 (BDF1) mice
Conditions: endpoint: mean survival time, higher = longer survival
Outline: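 Ratio derived from survival: compound-dosed mice over vehicle-dosed mice, all bearing a transplantable tumor.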

[1] = dose: 100.0 mg/kg/injection, schedule: Q01DX001 (ip), vehicle: carboxymethylcellulose (CMC)
[2] = dose: 200.0 mg/kg/injection, schedule: Q01DX001 (ip), vehicle: carboxymethylcellulose (CMC)
[3] = dose: 400.0 mg/kg/injection, schedule: Q01DX001 (ip), vehicle: carboxymethylcellulose (CMC)
[4] = dose: 100.0 mg/kg/injection, schedule: Q04DX003 (ip), vehicle: Klucel (hydroxypropylcellulose) (HPC)
[5] = dose: 200.0 mg/kg/injection, schedule: Q04DX003 (ip), vehicle: Klucel (hydroxypropylcellulose) (HPC)
[6] = dose: 400.0 mg/kg/injection, schedule: Q04DX003 (ip), vehicle: Klucel (hydroxypropylcellulose) (HPC)
[7] = dose: 100.0 mg/kg/injection, schedule: Q01DX009 (ip), vehicle: saline with Tween-80
[8] = dose: 100.0 mg/kg/injection, schedule: Q04DX003 (ip), vehicle: saline with Tween-80
[9] = dose: 200.0 mg/kg/injection, schedule: Q01DX009 (ip), vehicle: saline with Tween-80
[10] = dose: 200.0 mg/kg/injection, schedule: Q04DX003 (ip), vehicle: saline with Tween-80
[11] = dose: 400.0 mg/kg/injection, schedule: Q01DX009 (ip), vehicle: saline with Tween-80
[12] = dose: 400.0 mg/kg/injection, schedule: Q04DX003 (ip), vehicle: saline with Tween-80
[13] = dose: 100.0 mg/kg/injection, schedule: Q01DX009 (ip), vehicle: Klucel (hydroxypropylcellulose) (HPC)
[14] = dose: 200.0 mg/kg/injection, schedule: Q01DX009 (ip), vehicle: Klucel (hydroxypropylcellulose) (HPC)

Measured: T/C

CC(=[N-])CC(C)=O.CC(=[N-])CC(C)=O.[Ni+2]
inactive: dose: 3.0 mg/kg/injection, schedule: Q01DX009 (ip), vehicle: Klucel (hydroxypropylcellulose) (HPC) 90 % of control | dose: 3.12 mg/kg/injection, schedule: Q01DX001 (ip), vehicle: Klucel (hydroxypropylcellulose) (HPC) 97 % of control | dose: 3.12 mg/kg/injection, schedule: Q04DX003 (ip), vehicle: Klucel (hydroxypropylcellulose) (HPC) 98 % of control | dose: 3.13 mg/kg/injection, schedule: Q01DX009 (ip), vehicle: Klucel (hydroxypropylcellulose) (HPC) 97 % of control | dose: 6.0 mg/kg/injection, schedule: Q01DX009 (ip), vehicle: Klucel (hydroxypropylcellulose) (HPC) 95 % of control | dose: 6.25 mg/kg/injection, schedule: Q01DX001 (ip), vehicle: Klucel (hydroxypropylcellulose) (HPC) 100 % of control | dose: 6.25 mg/kg/injection, schedule: Q01DX009 (ip), vehicle: Klucel (hydroxypropylcellulose) (HPC) 97 % of control | dose: 6.25 mg/kg/injection, schedule: Q04DX003 (ip), vehicle: Klucel (hydroxypropylcellulose) (HPC) 97 % of control and 106 % of control | dose: 12.0 mg/kg/injection, schedule: Q01DX009 (ip), vehicle: Klucel (hydroxypropylcellulose) (HPC) 96 % of control | dose: 12.5 mg/kg/injection, schedule: Q01DX001 (ip), vehicle: Klucel (hydroxypropylcellulose) (HPC) 105 % of control | dose: 12.5 mg/kg/injection, schedule: Q01DX009 (ip), vehicle: Klucel (hydroxypropylcellulose) (HPC) 98 % of control | dose: 12.5 mg/kg/injection, schedule: Q04DX003 (ip), vehicle: Klucel (hydroxypropylcellulose) (HPC) 102 % of control and 103 % of control | dose: 25.0 mg/kg/injection, schedule: Q01DX001 (ip), vehicle: Klucel (hydroxypropylcellulose) (HPC) 100 % of control

O=[N+]([O-])c1cc(S(=O)(=O)F)ccc1F
inactive: dose: 0.07 mg/kg/injection, schedule: Q01DX009 (ip), vehicle: carboxymethylcellulose (CMC) 97 % of control | dose: 0.15 mg/kg/injection, schedule: Q01DX009 (ip), vehicle: carboxymethylcellulose (CMC) 100 % of control | dose: 0.31 mg/kg/injection, schedule: Q01DX009 (ip), vehicle: carboxymethylcellulose (CMC) 100 % of control | dose: 0.31 mg/kg/injection, schedule: Q04DX003 (ip), vehicle: carboxymethylcellulose (CMC) 92 % of control | dose: 0.46 mg/kg/injection, schedule: Q01DX009 (ip), vehicle: carboxymethylcellulose (CMC) 103 % of control | dose: 0.62 mg/kg/injection, schedule: Q04DX003 (ip), vehicle: carboxymethylcellulose (CMC) 92 % of control | dose: 0.7 mg/kg/injection, schedule: Q01DX009 (ip), vehicle: carboxymethylcellulose (CMC) 96 % of control | dose: 1.05 mg/kg/injection, schedule: Q01DX009 (ip), vehicle: carboxymethylcellulose (CMC) 92 % of control | dose: 1.5 mg/kg/injection, schedule: Q01DX009 (ip), vehicle: other 94 % of control | dose: 2.3 mg/kg/injection, schedule: Q01DX009 (ip), vehicle: other 89 % of control | dose: 3.4 mg/kg/injection, schedule: Q01DX009 (ip), vehicle: other 89 % of control | dose: 5.0 mg/kg/injection, schedule: Q01DX009 (ip), vehicle: other 87 % of control | dose: 10.0 mg/kg/injection, schedule: Q01DX001 (ip), vehicle: carboxymethylcellulose (CMC) 90 % of control

CC1(C)OC(COC(=O)c2ccccc2)C2OC(C)(C)OC(COC(=O)c3ccccc3)C2O1 (stereo not drawn)
inactive: [1] 93 % of control | [2] 90 % of control | [3] 95 % of control

CCOC(=O)c1cnc(SC)nc1NCCO
inactive: [4] 97 % of control | [5] 95 % of control | [6] 97 % of control

COc1ccccc1/C=N\NC(=O)c1ccco1
inactive: [1] 95 % of control | [2] 93 % of control | [3] 95 % of control

C[N+](C)(C)CCOc1ccccc1Cc1ccccc1
inactive: dose: 1.56 mg/kg/injection, schedule: Q01DX003 (ip), vehicle: saline 96 % of control | dose: 3.12 mg/kg/injection, schedule: Q01DX003 (ip), vehicle: saline 100 % of control | dose: 3.12 mg/kg/injection, schedule: Q01DX009 (ip), vehicle: saline 96 % of control and 100 % of control | dose: 6.25 mg/kg/injection, schedule: Q01DX003 (ip), vehicle: saline 96 % of control | dose: 6.25 mg/kg/injection, schedule: Q01DX009 (ip), vehicle: saline 106 % of control | dose: 12.5 mg/kg/injection, schedule: Q01DX009 (ip), vehicle: saline 105 % of control and 89 % of control | dose: 12.5 mg/kg/injection, schedule: Q04DX003 (ip), vehicle: saline 111 % of control

CC(=O)OC1CCC2C3CCC4=CC(=O)CCC4(C)C3=CCC12C (stereo not drawn)
inactive: dose: 100.0 mg/kg/injection, schedule: Q01DX001 (ip), vehicle: saline with Tween-80 95 % of control | dose: 200.0 mg/kg/injection, schedule: Q01DX001 (ip), vehicle: saline with Tween-80 95 % of control | dose: 400.0 mg/kg/injection, schedule: Q01DX001 (ip), vehicle: saline with Tween-80 92 % of control

CCCCCCCC/C=C/CCCCCC1CCCC(C)N1 (stereo not drawn)
inactive: dose: 6.25 mg/kg/injection, schedule: Q04DX002 (ip), vehicle: saline 96 % of control | dose: 12.5 mg/kg/injection, schedule: Q04DX002 (ip), vehicle: saline 96 % of control | dose: 25.0 mg/kg/injection, schedule: Q04DX002 (ip), vehicle: saline 111 % of control | dose: 50.0 mg/kg/injection, schedule: Q04DX002 (ip), vehicle: saline 90 % of control

C[n+]1ncc2ccccc2c1Cc1ccc(Br)cc1
inactive: dose: 6.25 mg/kg/injection, schedule: Q01DX009 (ip), vehicle: other 98 % of control and 103 % of control | dose: 6.25 mg/kg/injection, schedule: Q04DX002 (ip), vehicle: carboxymethylcellulose (CMC) 91 % of control | dose: 12.5 mg/kg/injection, schedule: Q01DX009 (ip), vehicle: other 108 % of control and 86 % of control | dose: 12.5 mg/kg/injection, schedule: Q04DX002 (ip), vehicle: carboxymethylcellulose (CMC) 106 % of control | dose: 25.0 mg/kg/injection, schedule: Q04DX002 (ip), vehicle: carboxymethylcellulose (CMC) 91 % of control | dose: 25.0 mg/kg/injection, schedule: Q04DX002 (ip), vehicle: other 100 % of control and 90 % of control

CC1C=CC2CC(O)C12 (stereo not drawn)
inactive: [7] 111 % of control | [8] 102 % of control | [9] 93 % of control | [10] 98 % of control | [11] 99 % of control | [12] 98 % of control

S=C(SSC(=S)N1CCCCC1)N1CCCCC1
inactive: dose: 100.0 mg/kg/injection, schedule: Q04DX003 (ip), vehicle: saline 104 % of control | dose: 200.0 mg/kg/injection, schedule: Q04DX003 (ip), vehicle: saline 98 % of control | dose: 400.0 mg/kg/injection, schedule: Q04DX003 (ip), vehicle: saline 101 % of control

COc1ccc(/C=N/NC(=O)c2ccco2)cc1OC
inactive: dose: 100.0 mg/kg/injection, schedule: Q01DX001 (ip), vehicle: other 93 % of control | dose: 400.0 mg/kg/injection, schedule: Q01DX001 (ip), vehicle: other 96 % of control

CN(C)C(=S)Oc1ccc(N)cc1
inactive: [4] 94 % of control | [5] 101 % of control | [6] 94 % of control

[O-][n+]1ccc(Cl)c2ccsc21
inactive: dose: 50.0 mg/kg/injection, schedule: Q01DX009 (ip), vehicle: saline with Tween-80 102 % of control | [7] 96 % of control | [8] 103 % of control | [9] 101 % of control | [10] 97 % of control | [12] 98 % of control

CC(=O)C1(c2ccccc2)OC1c1ccccc1 (stereo not drawn)
inactive: dose: 50.0 mg/kg/injection, schedule: Q01DX009 (ip), vehicle: Klucel (hydroxypropylcellulose) (HPC) 96 % of control | [13] 112 % of control | [4] 90 % of control | [14] 96 % of control | [5] 95 % of control

Cc1cc(C)c(NC(=O)Nc2cccc(F)c2)c(C)c1
inactive: [13] 96 % of control | dose: 100.0 mg/kg/injection, schedule: Q04DX002 (ip), vehicle: Klucel (hydroxypropylcellulose) (HPC) 98 % of control | [14] 105 % of control | dose: 200.0 mg/kg/injection, schedule: Q04DX002 (ip), vehicle: Klucel (hydroxypropylcellulose) (HPC) 102 % of control | dose: 400.0 mg/kg/injection, schedule: Q04DX002 (ip), vehicle: Klucel (hydroxypropylcellulose) (HPC) 102 % of control

CCCOP(=S)(NCCOC)OCCC
inactive: [7] 97 % of control | [9] 100 % of control | [11] 89 % of control
